Measured values published in patent US8658661B2, “Oxadiazole inhibitors of leukotriene production” (Boehringer Ingelheim International GmbH, priority 2010, dated 2014).

Tests used:
[1] = molecular target: T1, recombinant human FLAP protein (Homo sapiens, UniProt P20292); experiment: FLAP binding assay (SPA, displacement of [125I]L-691,831); conditions: for IC50: membranes of sf9 cells expressing recombinant human FLAP, [125I]L-691,831 probe, read-out: FLAP binding IC50
T1 construct: made in house; host or cells: Sf9 insect cells (100,000×g membrane pellet used)
T1 sequence (P20292 1-161): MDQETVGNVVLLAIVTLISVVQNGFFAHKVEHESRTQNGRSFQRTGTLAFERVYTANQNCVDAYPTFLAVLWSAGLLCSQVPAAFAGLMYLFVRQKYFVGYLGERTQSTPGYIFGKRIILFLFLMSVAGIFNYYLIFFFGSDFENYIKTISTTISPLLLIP
Outline: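 Membranes from sf9 cells expressing human FLAP in pH 7.5 Tris buffer (MgCl2, EDTA, PMSF). Non-specific binding defined with 10 μM cold L-691,831.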

[2] = system: synthesis of LTB4 in human whole blood; experiment: Human whole blood assay (inhibition of LTB4 synthesis, calcimycin stimulated); assay type: cell-based; conditions: heparinized human whole blood, calcimycin 20 μM, plasma LTB4
Outline: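 Whole-blood cellular format, heparinized human donors: 15 min compound pretreatment, then 30 min calcimycin stimulation (20 μM final), both at 37° C. Low-speed centrifugation yields plasma, in which LTB4 is read by homogeneous time-resolved fluorescence immunoassay.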

Compound	IC50 [1]	IC50 [2]	inhibition at 1 µM ([1]; at 1000 nM, read-out: FLAP binding % inh @ 1000 nM)
CCNc1nc(C(C)(c2ccc(-c3cnc(N)nc3)cc2)C(C)C)no1 (centres unmarked) [Example 134, 5-(4-{2-[5-(ethylamino)-1,2,4-oxadiazol-3-yl]-3-methylbutan-2-yl}phenyl)pyrimidin-2-amine]	8.3 nM	190 nM	–
CC(c1ccc(-c2cnc(N)nc2)cc1)(c1noc(-c2ccc(NCCS(C)(=O)=O)nc2)n1)C1CC1 (centres unmarked) [Example 41, 5-(4-{1-cyclopropyl-1-[5-(6-{[2-(methylsulfonyl)ethyl]amino}pyridin-3-yl)-1,2,4-oxadiazol-3-yl]ethyl}phenyl)pyrimidin-2-amine]	2.2 nM	170 nM	–
CC(C)C(C)(c1ccc(-c2cnc(N)nc2)cc1)c1noc(CCC(C)(C)C(=O)O)n1 (centres unmarked) [Example 85, 4-(3-{2-[4-(2-aminopyrimidin-5-yl)phenyl]-3-methylbutan-2-yl}-1,2,4-oxadiazol-5-yl)-2,2-dimethylbutanoic acid]	48 nM	> 5000 nM	–
CN(C)C(=O)Cn1cc(-c2nc([C@@](C)(c3ccc(-c4cnc(N)nc4)cc3)C3CC3)no2)cn1 (single isomer, unassigned) [Example 115]	1.9 nM	58 nM	–
CC(C)[C@](C)(c1ccc(-c2cnc(N)nc2)cc1)c1noc(-c2cnn(CC(C)(C)O)c2)n1 [Example 107, 1-[4-(3-{(2R)-2-[4-(2-aminopyrimidin-5-yl)phenyl]-3-methylbutan-2-yl}-1,2,4-oxadiazol-5-yl)-1H-pyrazol-1-yl]-2-methylpropan-2-ol]	0.86 nM	17 nM	–
CC(C)C(C)(c1ccc(-c2cnc(N)nc2)cc1)c1noc(O)n1 (centres unmarked) [Example 88, 3-{1-[4-(2-Amino-pyrimidin-5-yl)-phenyl]-1,2-dimethyl-propyl}-[1,2,4]oxadiazol-5-ol]	–	> 5000 nM	51%
CC(C)[C@@](C)(c1ccc(-c2cnc(N)nc2)cc1)c1noc(-c2ccn(C)n2)n1 [Example 17, 5-(4-{(2S)-3-methyl-2-[5-(1-methyl-1H-pyrazol-3-yl)-1,2,4-oxadiazol-3-yl]butan-2-yl}phenyl)pyrimidin-2-amine]	24 nM	510 nM	–
CC(C)C(C)(c1ccc(-c2cnc(N)nc2)cc1)c1noc(-c2cn[nH]c2)n1 (centres unmarked) [Example 146, 5-(4-{3-methyl-2-[5-(1H-pyrazol-4-yl)-1,2,4-oxadiazol-3-yl]butan-2-yl}phenyl)pyrimidin-2-amine]	1.3 nM	46 nM	–
CC(C)C(C)(c1ccc(-c2cnc(N)nc2)cc1)c1noc(-c2ccc(N)nc2)n1 (centres unmarked) [Example 151, 5-(4-{2-[5-(6-aminopyridin-3-yl)-1,2,4-oxadiazol-3-yl]-3-methylbutan-2-yl}phenyl)pyrimidin-2-amine]	2.3 nM	100 nM	–
CC(C)C(C)(c1ccc(-c2cnc(N)nc2)cc1)c1noc(C2CCOCC2)n1 (centres unmarked) [Example 138, 5-(4-{3-methyl-2-[5-(tetrahydro-2H-pyran-4-yl)-1,2,4-oxadiazol-3-yl]butan-2-yl}phenyl)pyrimidin-2-amine]	15 nM	760 nM	–
CC(C)(O)CNc1cnc(-c2nc(C(C)(C)c3ccc(-c4cnc(N)nc4)cc3)no2)cn1 [Example 73, 1-{[5-(3-{2-[4-(2-aminopyrimidin-5-yl)phenyl]propan-2-yl}-1,2,4-oxadiazol-5-yl)pyrazin-2-yl]amino}-2-methylpropan-2-ol]	28 nM	990 nM	–
CC(C)C(C)(c1ccc(-c2cnc(N)nc2)cc1)c1noc(-c2ccn(C)n2)n1 (centres unmarked) [Example 14, 5-(4-{3-methyl-2-[5-(1-methyl-1H-pyrazol-3-yl)-1,2,4-oxadiazol-3-yl]butan-2-yl}phenyl)pyrimidin-2-amine]	4.6 nM	140 nM	–
CC(C)C(C)(c1ccc(-c2cnc(N)nc2)cc1)c1noc(N2CCN(S(C)(=O)=O)CC2)n1 (centres unmarked) [Example 170, 5-(4-{1-[5-(4-Methanesulfonyl-piperazin-1-yl)-[1,2,4]oxadiazol-3-yl]-1,2-dimethyl-propyl}-phenyl)-pyrimidin-2-ylamine]	14 nM	310 nM	–
CC(C)C(C)(c1ccc(-c2cnc(N)nc2)cc1)c1noc(-c2ccnn2C)n1 (centres unmarked) [Example 18, 5-(4-{3-methyl-2-[5-(1-methyl-1H-pyrazol-5-yl)-1,2,4-oxadiazol-3-yl]butan-2-yl}phenyl)pyrimidin-2-amine]	3.3 nM	320 nM	–
CN(C)C(=O)Cn1cc(-c2nc(C(C)(c3ccc(-c4cnc(N)nc4)cc3)C3CCC3)no2)cn1 (centres unmarked) [Example 97, 2-[4-(3-{1-[4-(2-aminopyrimidin-5-yl)phenyl]-1-cyclobutylethyl}-1,2,4-oxadiazol-5-yl)-1H-pyrazol-1-yl]-N,N-dimethylacetamide]	8.8 nM	170 nM	–
CC(c1ccc(-c2cnc(N)nc2)cc1)(c1noc(-c2cn[nH]c2)n1)C1CCC1 (centres unmarked) [Example 34, 5-(4-{1-cyclobutyl-1-[5-(1H-pyrazol-4-yl)-1,2,4-oxadiazol-3-yl]ethyl}phenyl)pyrimidin-2-amine]	3.7 nM	160 nM	–

Further lines, results first:

IC50 [1]	IC50 [2]	inhibition at 1 µM ([1]; at 1000 nM, read-out: FLAP binding % inh @ 1000 nM)	Compound
8.5 nM	210 nM	–	CO[C@@H]1CCN(C(=O)Cn2cc(-c3nc([C@@](C)(c4ccc(-c5cnc(N)nc5)cc4)C4CC4)no3)cn2)C1 [Example 220, 2-[4-(3-{(R)-1-[4-(2-Amino-pyrimidin-5-yl)-phenyl]-1-cyclopropyl-ethyl}-[1,2,4]oxadiazol-5-yl)-pyrazol-1-yl]-1-((R)-3-methoxy-pyrrolidin-1-yl)-ethanone]
6.2 nM	150 nM	–	CO[C@H]1CCN(C(=O)Cn2cc(-c3nc([C@@](C)(c4ccc(-c5cnc(N)nc5)cc4)C4CC4)no3)cn2)C1 [Example 221, 2-[4-(3-{(R)-1-[4-(2-Amino-pyrimidin-5-yl)-phenyl]-1-cyclopropyl-ethyl}-[1,2,4]oxadiazol-5-yl)-pyrazol-1-yl]-1-((S)-3-methoxy-pyrrolidin-1-yl)-ethanone]
12 nM	390 nM	–	C[C@](c1ccc(-c2cnc(N)nc2)cc1)(c1noc(-c2cnc(N3CCNCC3)cn2)n1)C1CC1 [Example 267, 5-(4-{(S)-1-Cyclopropyl-[5-(3,4,5,6-tetrahydro-2H-[1,2′]bipyrazinyl-5′-yl)-[1,2,4]oxadiazol-3-yl]-ethyl}-phenyl)-pyrimidin-2-ylamine]
46 nM	350 nM	–	CC(C)C(C)(c1ccc(-c2cnc(N)nc2)cc1)c1noc(N2CCN(C)C(=O)C2)n1 (centres unmarked) [Example 202, 4-(3-{1-[4-(2-Amino-pyrimidin-5-yl)-phenyl]-1,2-dimethyl-propyl}-[1,2,4]oxadiazol-5-yl)-1-methyl-piperazin-2-one]
7 nM	200 nM	–	CN(C)C(=O)Cn1cc(-c2nc([C@@](C)(c3ccc(-c4cnc(N)c(C#N)n4)cc3)C3CC3)no2)cn1 [Example 294, 2-[4-(3-{(R)-1-[4-(5-Amino-6-cyano-pyrazin-2-yl)-phenyl]-1-cyclopropyl-ethyl}-[1,2,4]oxadiazol-5-yl)-pyrazol-1-yl]-N,N-dimethyl-acetamide]
120 nM	700 nM	–	CNC(=O)Cn1cc(-c2nc([C@](C)(c3ccc(-c4cnc(N)nc4)cc3)C3CC3)no2)cn1 [Example 231, 2-[4-(3-{(S)-1-[4-(2-Amino-pyrimidin-5-yl)-phenyl]-1-cyclopropyl-ethyl}-[1,2,4]oxadiazol-5-yl)-pyrazol-1-yl]-N-methyl-acetamide]
22 nM	1000 nM	–	CN(C)C(=O)Cn1cc(-c2nc(C(C)(c3ccc(-c4cnc(N)c(C(F)(F)F)n4)cc3)C3CC3)no2)cn1 (centres unmarked) [Example 289, 2-[4-(3-{1-[4-(5-Amino-6-trifluoromethyl-pyrazin-2-yl)-phenyl]-1-cyclopropyl-ethyl}-[1,2,4]oxadiazol-5-yl)-pyrazol-1-yl]-N,N-dimethyl-acetamide]
18 nM	230 nM	–	CC(C)C(C)(c1ccc(-c2cnc(N)nc2)cc1)c1noc(N2CCN(CC(=O)N(C)C)CC2)n1 (centres unmarked) [Example 193, 2-[4-(3-{1-[4-(2-Amino-pyrimidin-5-yl)-phenyl]-1,2-dimethyl-propyl}-[1,2,4]oxadiazol-5-yl)-piperazin-1-yl]-N,N-dimethyl-acetamide]
3.1 nM	14 nM	–	CN(C)CCn1cc(-c2nc([C@@](C)(c3ccc(-c4cnc(N)nc4)cc3)C3CC3)no2)cn1 [Example 182, 5-[4-((R)-1-Cyclopropyl-1-{5-[1-(2-dimethylamino-ethyl)-1H-pyrazol-4-yl]-[1,2,4]oxadiazol-yl}-ethyl)-phenyl]-pyrimidin-2-ylamine]
7 nM	150 nM	–	CC(c1ccc(-c2cnc(N)nc2)cc1)(c1noc(N2CCC[C@@H](O)C2)n1)C1CC1 (stereo partly drawn) [Example 287, (R)-1-(3-{1-[4-(2-Amino-pyrimidin-5-yl)-phenyl]-1-cyclopropyl-ethyl}-[1,2,4]oxadiazol-5-yl)-piperidin-3-ol]
220 nM	1900 nM	–	CC(C)C(C)(c1ccc(-c2cnc(N)nc2)cc1)c1noc(NCCN(C)C)n1 (centres unmarked) [Example 171, N-(3-{1-[4-(2-Amino-pyrimidin-5-yl)-phenyl]-1,2-dimethyl-propyl}-[1,2,4]oxadiazol-5-yl)-N′,N′-dimethyl-ethane-1,2-diamine]
76 nM	> 5000 nM	–	CC(C)Nc1ncc(-c2ccc([C@](C)(c3noc(-c4cnn(CC(=O)N(C)C)c4)n3)C3CC3)cc2)cn1 [Example 279, 2-[4-(3-{(R)-1-Cyclopropyl-1-[4-(2-isopropylamino-pyrimidin-5-yl)-phenyl]-ethyl}-[1,2,4]oxadiazol-5-yl)-pyrazol-1-yl]-N,N-dimethyl-acetamide]
